Assays:
Assay in all cases: direct UV assay of deamination
Type in all cases: biochemical
Conditions in all cases: 20 mM HEPES pH 7.5, 30 °C
[1] = molecular target: T1, Avi5431 (Gillisella ampelina, UniProt B9K107)
T1 sequence (B9K107 1-466): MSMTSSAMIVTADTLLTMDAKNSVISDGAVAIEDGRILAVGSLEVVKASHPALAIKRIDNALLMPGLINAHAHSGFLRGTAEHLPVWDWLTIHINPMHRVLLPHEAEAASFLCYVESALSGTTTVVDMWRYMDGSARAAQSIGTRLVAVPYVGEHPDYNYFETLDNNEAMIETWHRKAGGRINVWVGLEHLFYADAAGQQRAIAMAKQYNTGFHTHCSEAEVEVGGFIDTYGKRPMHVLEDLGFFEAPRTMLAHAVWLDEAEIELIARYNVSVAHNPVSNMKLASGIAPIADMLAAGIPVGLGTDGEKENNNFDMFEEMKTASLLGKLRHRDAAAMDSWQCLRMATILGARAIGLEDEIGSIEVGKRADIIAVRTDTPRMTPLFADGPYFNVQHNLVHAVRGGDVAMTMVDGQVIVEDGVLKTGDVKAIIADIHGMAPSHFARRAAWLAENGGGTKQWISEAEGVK

[2] = molecular target: T1, Avi5431; remark: listed apart in the source
[3] = molecular target: T2, Tvn0515 (Thermoplasma volcanium, UniProt Q97BE1)
T2 sequence (Q97BE1 1-418): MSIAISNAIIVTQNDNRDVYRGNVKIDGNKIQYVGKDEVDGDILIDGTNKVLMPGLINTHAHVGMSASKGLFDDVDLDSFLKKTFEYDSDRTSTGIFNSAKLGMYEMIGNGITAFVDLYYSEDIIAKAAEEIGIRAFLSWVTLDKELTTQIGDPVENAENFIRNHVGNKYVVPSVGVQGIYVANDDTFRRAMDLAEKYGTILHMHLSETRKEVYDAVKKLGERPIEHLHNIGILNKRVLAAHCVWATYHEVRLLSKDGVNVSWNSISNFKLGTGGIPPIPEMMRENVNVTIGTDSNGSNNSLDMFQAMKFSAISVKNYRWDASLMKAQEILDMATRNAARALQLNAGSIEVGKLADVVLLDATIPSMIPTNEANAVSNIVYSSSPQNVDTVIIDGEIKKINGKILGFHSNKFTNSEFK

## Nc1ncnc2[nH]c(=O)[nH]c12 [8-oxoadenine]
[1]
  direct UV assay of deamination (272 nm): Avi5431 deaminated two adenine related compounds, 8-oxoadenine and 2-oxoadenine

## Nc1nc(O)nc2[nH]cnc12 [2-oxoadenine]
[2]
  direct UV assay of deamination (294 nm): Avi5431 deaminated two adenine related compounds, 8-oxoadenine and 2-oxoadenine

## Nc1ncnc2c1ncn2[C@@H]1O[C@H](CSCC[C@H](N)C(=O)O)[C@@H](O)[C@H]1O [SAH]
[3]
  Km: Tvn0515 (sg-11) deaminates only SAH
